Values of other authors as cited in patent EP0349956A1, “Azacyclic compounds and their preparation und use” (NOVO NORDISK A/S, priority 1988, dated 1990).
Where two headings read alike, the source gives them in different places.

Biological target: muscarinic receptor in the CNS

³H-Oxotremorine-M
Kd (first of three different sites labelled by ³H-Oxo (high affinity)): 1.8 nM | Kd (second of three different sites labelled by ³H-Oxo (medium affinity)): 20 nM | Kd (third of three different sites labelled by ³H-Oxo (not determined under the present conditions), read-out: affinity): 3000 nM
